Measured values taken from patent US7173134B2, “Selective RXR ligands” (SmithKline Beecham Corporation, priority 2001, dated 2007).

Assays:
hRXRα = molecular target: T1, hRXRα (Homo sapiens, UniProt P19793); assay: Scintillation Proximity Assay (SPA) binding assay, 9-cis[3H]-retinoic acid radioligand; settings: RXRα ligand binding domain on SPA beads; radioligand 9-cis[3H]-retinoic acid; read-out: Apparent pKi (converted)
T1 construct: polyhistidine (N); made in house; host or cells: E. coli
T1 sequence (P19793 227-458 limits assumed): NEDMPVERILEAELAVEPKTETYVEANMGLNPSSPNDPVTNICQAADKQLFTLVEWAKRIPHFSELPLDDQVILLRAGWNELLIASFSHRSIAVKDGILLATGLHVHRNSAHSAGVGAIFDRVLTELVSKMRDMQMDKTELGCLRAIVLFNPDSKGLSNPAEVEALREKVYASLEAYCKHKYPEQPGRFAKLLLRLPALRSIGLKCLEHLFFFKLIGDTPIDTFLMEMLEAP
Description: The compounds were tested for their ability to bind to hRXRα using a Scintillation Proximity Assay (SPA) as is known in the art. The RXRα ligand binding domain (LBD) was expressed in E. coli as an amino-terminal polyhistidine tagged fusion protein. The LBD was then labeled with biotin and immobilized on streptavidin-modified scintillation proximity beads.
9-cis[3H]-Retinoic acid (9-cis) was the radioligand used for the assay. To each well to be assayed was added the desired concentration of the previously prepared solution of 9-cis previously incubated with receptor-coated SPA bead slurry. The plates were incubated for at least 1 hour at room temperature and bound radioactivity for each well was determined in a Wallac 1450 Microbeta counter.
In this specification, pKi=−log of the concentration of the test compound required to achieve an apparent Ki value according to the equation Ki=IC50/1+[L]/Kd, where IC50=the concentration of test compound required to inhibit 50% of the specific binding of the radioligand, [L] is the concentration of the radioligand used, and Kd is the dissociation constant for the radioligand at the receptor.

full length human RXRα = molecular target: T2, full length human RXRα (Homo sapiens, UniProt P19793); assay: Transient transfection assay in CV-1 cells (CRBP II-tk-SPAP reporter); assay type: cell-based; settings: CV-1 cells transfected with human RXRα and CRBP II-tk-SPAP reporter; 24 h incubation; SPAP activity
T2 construct: These cells were transfected with full length human RXRα; expressed in transfected cells; host or cells: CV-1 (monkey kidney cell line)
T2 sequence (P19793 1-462): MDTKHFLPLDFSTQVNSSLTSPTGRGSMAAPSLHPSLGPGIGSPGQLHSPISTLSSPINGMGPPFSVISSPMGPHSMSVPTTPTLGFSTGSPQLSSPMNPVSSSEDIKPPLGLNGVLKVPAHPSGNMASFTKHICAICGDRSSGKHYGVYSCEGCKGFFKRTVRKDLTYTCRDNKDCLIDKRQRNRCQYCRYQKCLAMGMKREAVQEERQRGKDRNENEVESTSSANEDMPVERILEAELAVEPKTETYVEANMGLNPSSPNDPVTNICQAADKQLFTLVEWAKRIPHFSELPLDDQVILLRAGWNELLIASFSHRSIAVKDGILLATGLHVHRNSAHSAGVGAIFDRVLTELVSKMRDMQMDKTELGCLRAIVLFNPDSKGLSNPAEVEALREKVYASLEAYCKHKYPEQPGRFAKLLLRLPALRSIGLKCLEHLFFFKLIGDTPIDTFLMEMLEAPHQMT
Description: Transcriptional activity of the compounds was measured in a monkey kidney cell line (CV-1). These cells were transfected with full length human RXRα and the natural response element, cellular retinol binding protein type II in a reporter gene construct, (CRBP II-tk-SPAP), consisting of HSV tk promoter, and the secreted placental alkaline phosphatase reporter gene. CV-1 cells were plated at a density of 24,000 cells per well in high glucose DMEM supplemented with 10% charcoal/dextran-treated FBS. Transfection mixes contained 4 ng of receptor expression vector, 8 ng of reporter plasmid, 25 ng of β-galactosidase expression vector (used as an internal control), and 43 ng of carrier plasmid. Transfections were performed with Lipofectamine according to the manufacturer's instructions. Drug dilutions were prepared in phenol red-free DMEM/F-12 with 15 mM HEPES supplemented with 10% charcoal-stripped, delipidated calf serum. Cells were incubated for 24 h in the presence of drugs, after which the medium was sampled and assayed for SPAP activity.
B-galactosidase, which measures transfection efficiency activity, was determined by using 3.6 mM o-nitrophenyl-D-galactopyranoside in 0.1 M sodium phosphate pH 7.2 buffer containing 0.13% Triton X-100 as substrate. These plates were read on a Molecular Devices Vmax spectrophotometer, at a 405 nm endpoint reading. Data were reduced using RoboFit.
The results were expressed as percent of maximum or fold activation calculated by the following formulas: fold activation=(((SPAP−SPAPsubstrate blank avg.)/(β-gal−β-gal substrate blank avg.))−DMSO vehicle avg.)/DMSO vehicle avg, and % max.=(fold activation of unknown/positive control fold activation avg.)×100.

Compound | Ki (hRXRα) | EC50 (full length human RXRα)
CC1(C)CCC(C)(C)c2cc(C3CCCc4oc(C(=O)O)cc43)ccc21 (stereo not drawn) [Example 13, 4-(5,5,8,8-Tetramethyl-5,6,7,8-tetrahydro-2-naphthalenyl)-4,5,6,7-tetrahydro-1-benzofuran-2-carboxylic acid] | > 1000 nM | > 1000 nM
CC1(C)CCC(C)(C)c2cc(Cc3csc(/C=C/C(=O)O)c3)ccc21 [Example 18, (2E)-3-{4-[(5,5,8,8-Tetramethyl-5,6,7,8-tetrahydro-2-naphthalenyl)methyl]-2-thienyl}-2-propenoic acid] | > 1000 nM | > 1000 nM
COc1cc2c(cc1Cc1coc(/C=C/C(=O)O)c1)C(C)(C)CCC2(C)C [Example 19, (2E)-3-{4-[(3-Methoxy-5,5,8,8-tetramethyl-5,6,7,8-tetrahydro-2-naphthalenyl)methyl]-2-furyl}-2-propenoic acid] | > 1000 nM | > 1000 nM
